Results from patent US5068349A, “Mitomycin derivatives” (Kyowa Hakko Kogyo Co., Ltd., priority 1988, dated 1991).
≈ marks a conversion by molar mass, not a printed value.

Assays:
[1] = test system: Streptococcus faecium ATCC 10541; assay: minimum growth inhibitory concentration, agar dilution method (SF); format: cell-based; conditions: Enterococcus faecium, ATCC10541, pH 7.0
Procedure: (§1) The antibacterial activity of Compounds (I) against various bacteria [minimum growth inhibitory concentration (μ g/ml)] is shown in Table 3.
(§2) The minimum growth inhibitory concentration was determined by the agar dilution method at pH 7.0. In the table, names of bacteria are shown by the following symbols.
SF : Streptococcus faecium ATCC 10541

[2] = test system: Klebsiella pneumoniae ATCC 10031; assay: minimum growth inhibitory concentration, agar dilution method (KP); format: cell-based; conditions: ATCC10031, pH 7.0
Procedure: as §1, §2
KP : Klebsiella pneumoniae ATCC 10031

[3] = test system: Staphylococcus aureus ATCC 6538P; assay: minimum growth inhibitory concentration, agar dilution method (SA); format: cell-based; conditions: ATCC6538P, pH 7.0
Procedure: as §1, §2
SA : Staphylococcus aureus ATCC 6538P

[4] = test system: Proteus vulgaris ATCC 6897; assay: minimum growth inhibitory concentration, agar dilution method (PV); format: cell-based; conditions: ATCC6897, pH 7.0
Procedure: as §1, §2
PV : Proteus vulgaris ATCC 6897

Sarcoma 180 solid tumor = assay: Determination of ED50 against Sarcoma 180 solid tumor; format: in vivo; conditions: Mus musculus, dose at T/C 0.5 (tumor volume, 7 days after implantation), male ddY mice, 24 hours after implantation
Procedure: (§3) LD50 and ED50 were determined by the following methods, respectively.
(2) Determination of ED50
Sarcoma 180 cells (5×10^6 cells) were implanted intraperitoneally into a ddY mouse and the cells were collected from the ascitic fluid of the animal 7 days after the implantation. The cells were washed once with sterilized physiological saline solution and then suspended in sterilized physiological saline solution to prepare a cell suspension containing 5×10^7 cells/ml. The suspension (0.1 ml) was subcutaneously implanted into the right axilla of male ddY mice weighing 20±2 g.
A test compound was dissolved in physiological saline solution or Tween 80-containing physiological saline solution, and 0.1 to 0.2 ml of the solution was administered to 5 mice as one group intraperitoneally or intravenously 24 hours after the implantation of the tumor cells.
The anti-tumor activity of the test compound was determined by measuring the major axis (a) and the minor axis (b) of the tumor 7 days after the implantation, calculating a value of (a)×(b)^2 /2 corresponding to the volume of the tumor, and calculating a ratio T/C of the volume (T) of the group which received the test compound to the volume (C) of the control group which received no test compound T/C at each dose given was plotted on a graph in which T/C is shown by an ordinary scale on the vertical axis and a dose is shown by a logarithmic scale on the abscissa. The relationship between the dose and T/C was determined to be a straight line by the least-squares method.

[5] = Determination of LD50 (single administration, 14 days observation); conditions: mouse, in vivo, ddY mice, Behrens Kaerber's method
Procedure: as §3
(1) Determination of LD50
Five ddY mice were used for each group, and the test compounds were administered once to the mice intraperitoneally or intravenously. […] LD50 was calculated from the death rate of each group according to the Behrens Kaerber's method.

[6] = Sarcoma-180, ip, 168 h, intraperitoneal
[7] = Sarcoma-180, 168 h, intravenous

Compound | MIC [1] [µg/mL] | MIC [2] [µg/mL] | MIC [3] [µg/mL] | MIC [4] [µg/mL] | ED50 (Sarcoma 180 solid tumor; [6]) [mg/kg] | LD50 at 336 h ([5]; ip, intraperitoneal) [mg/kg] | ED50 (Sarcoma 180 solid tumor; [7]) [mg/kg] | LD50 at 336 h ([5]; intravenous) [mg/kg]
COCC1=C(N)C(=O)C2=C(C1=O)N1CC3C(N3C)C1(OC)C2COC(N)=O (stereo not drawn) [Compound 1, 6-Demethyl-6-methoxymethylporfiromycin] | 0.63 (≈ 1.66 µM) | 0.63 (≈ 1.66 µM) | 0.31 (≈ 0.819 µM) | > 40 |  |  |  | 
COCC1=C(N)C(=O)C2=C(C1=O)N1CC3NC3C1(OC)C2COC(N)=O (stereo not drawn) [Compound 2, 6-Demethyl-6-methoxymethylmitomycin C] | 1.3 (≈ 3.57 µM) | 0.31 (≈ 0.851 µM) | 1.3 (≈ 3.57 µM) | 1.3 (≈ 3.57 µM) | 34 | 75 |  | 
COCC1=C(OC)C(=O)C2=C(C1=O)N1CC3NC3C1(OC)C2COC(N)=O (stereo not drawn) [Compound 4, 6-Demethyl-6-methoxymethylmitomycin A] | 10 (≈ 26.4 µM) | 0.63 (≈ 1.66 µM) | 10 (≈ 26.4 µM) | 2.5 (≈ 6.59 µM) |  |  |  | 
CCCCOCC1=C(N)C(=O)C2=C(C1=O)N1CC3NC3C1(OC)C2COC(N)=O (stereo not drawn) [Compound 6, 6-Demethyl-6-n-butoxymethylmitomycin C] | 0.31 (≈ 0.763 µM) | 5 (≈ 12.3 µM) | 0.63 (≈ 1.55 µM) |  | 38 | > 50 |  | 
COC12C(COC(N)=O)C3=C(C(=O)C(COCc4ccccc4)=C(N)C3=O)N1CC1NC12 (stereo not drawn) [Compound 7, 6-Demethyl-6-benzyloxymethylmitomycin C] | 0.16 (≈ 0.363 µM) | 5 (≈ 11.4 µM) | 0.63 (≈ 1.43 µM) |  | 25.2 | 60 |  | 
COC12C(COC(N)=O)C3=C(C(=O)C(COC(C)C)=C(N)C3=O)N1CC1NC12 (stereo not drawn) [Compound 8, 6-Demethyl-6-isopropoxymethylmitomycin C] | 0.31 (≈ 0.79 µM) | 0.63 (≈ 1.61 µM) | 0.63 (≈ 1.61 µM) | 40 (≈ 102 µM) |  |  | 14.9 | > 50
COC12C(COC(N)=O)C3=C(C(=O)C(CO)=C(N)C3=O)N1CC1NC12 (stereo not drawn) [Compound 10, 6-Demethyl-6-hydroxymethylmitomycin C] | 10 (≈ 28.5 µM) | 1.3 (≈ 3.71 µM) | 5 (≈ 14.3 µM) | 5 (≈ 14.3 µM) |  |  |  | 
CCSCC1=C(N)C(=O)C2=C(C1=O)N1CC3NC3C1(OC)C2COC(N)=O (stereo not drawn) [Compound 11, 6-Demethyl-6-ethylthiomethylmitomycin C] | 0.31 (≈ 0.786 µM) | 1.3 (≈ 3.3 µM) | 0.039 (≈ 0.0989 µM) | 0.16 (≈ 0.406 µM) | 11.6 | 30 |  | 
COC(=O)CCSCC1=C(N)C(=O)C2=C(C1=O)N1CC3NC3C1(OC)C2COC(N)=O (stereo not drawn) [Compound 12, 6-Demethyl-6-(2-methoxycarbonylethylthio)methylmitomycin C] | 0.63 (≈ 1.39 µM) | 0.31 (≈ 0.685 µM) | 0.31 (≈ 0.685 µM) | 1.3 (≈ 2.87 µM) |  |  |  | 
COC12C(COC(N)=O)C3=C(C(=O)C(CSCCO)=C(N)C3=O)N1CC1NC12 (stereo not drawn) [Compound 13, 6-Demethyl-6-(2-hydroxyethylthio)methylmitomycin C] | 10 (≈ 24.4 µM) | 5 (≈ 12.2 µM) | 10 (≈ 24.4 µM) | 40 (≈ 97.5 µM) |  |  |  | 
CCCCCCCCCCCCSCC1=C(N)C(=O)C2=C(C1=O)N1CC3NC3C1(OC)C2COC(N)=O (stereo not drawn) [Compound 14, 6-Demethyl-6-dodecylthiomethylmitomycin C] | 0.39 (≈ 0.729 µM) |  | 0.2 (≈ 0.374 µM) | > 50 |  |  |  | 
COC12C(COC(N)=O)C3=C(C(=O)C(CSC(C)C)=C(N)C3=O)N1CC1NC12 (stereo not drawn) [Compound 16, 6-Demethyl-6-isopropylthiomethylmitomycin C] | 0.078 (≈ 0.191 µM) | 1.3 (≈ 3.18 µM) | 0.16 (≈ 0.392 µM) | 10 (≈ 24.5 µM) |  |  | 8.4 | 37.5
COC12C(COC(N)=O)C3=C(C(=O)C(CSc4ccccc4)=C(N)C3=O)N1CC1NC12 (stereo not drawn) [Compound 17, 6-Demethyl-6-phenylthiomethylmitomycin C] | 0.31 (≈ 0.701 µM) | 10 (≈ 22.6 µM) | 20 (≈ 45.2 µM) | 40 (≈ 90.4 µM) |  |  | 6.1 | 50
COC12C(COC(N)=O)C3=C(C(=O)C(CSCc4ccccc4)=C(N)C3=O)N1CC1NC12 (stereo not drawn) [Compound 18, 6-Demethyl-6-benzylthiomethylmitomycin C] | 0.039 (≈ 0.0854 µM) | 5 (≈ 11 µM) | 0.16 (≈ 0.35 µM) | 40 (≈ 87.6 µM) |  |  | 20.2 | 56.6
COC12C(COC(N)=O)C3=C(C(=O)C4=C(NCCSC4)C3=O)N1CC1NC12 (stereo not drawn) [Compound 20] | 5 (≈ 12.7 µM) | 10 (≈ 25.5 µM) | 2.5 (≈ 6.37 µM) | 40 (≈ 102 µM) |  |  | 12.6 | 22.5
